Measured values as given in US9084828B2, “Oligomer-protein tyrosine kinase inhibitor conjugates” (Nektar Therapeutics, priority 2009, dated 2015).

Target: ABL (Homo sapiens, UniProt P00519)
Experiment: ABL tyrosine kinase inhibition, off-chip incubation mobility-shift kinase assay (Caliper LABCHIP 3000)
Details: for IC50: ABL, ATP at Km 14 μM, unit inferred; for ABL AVG % Activity at Specific Concentration: average of replicate wells
[1] = at 1.0E−09 (concentration unit not given)
[2] = at 1.0E−10 (concentration unit not given)
[3] = at 1.0E−11 (concentration unit not given)
[4] = at 3.0E−09 (concentration unit not given)
[5] = at 3.0E−10 (concentration unit not given)
[6] = at 3.0E−11 (concentration unit not given)

ABL, sequence (P00519 whole entry): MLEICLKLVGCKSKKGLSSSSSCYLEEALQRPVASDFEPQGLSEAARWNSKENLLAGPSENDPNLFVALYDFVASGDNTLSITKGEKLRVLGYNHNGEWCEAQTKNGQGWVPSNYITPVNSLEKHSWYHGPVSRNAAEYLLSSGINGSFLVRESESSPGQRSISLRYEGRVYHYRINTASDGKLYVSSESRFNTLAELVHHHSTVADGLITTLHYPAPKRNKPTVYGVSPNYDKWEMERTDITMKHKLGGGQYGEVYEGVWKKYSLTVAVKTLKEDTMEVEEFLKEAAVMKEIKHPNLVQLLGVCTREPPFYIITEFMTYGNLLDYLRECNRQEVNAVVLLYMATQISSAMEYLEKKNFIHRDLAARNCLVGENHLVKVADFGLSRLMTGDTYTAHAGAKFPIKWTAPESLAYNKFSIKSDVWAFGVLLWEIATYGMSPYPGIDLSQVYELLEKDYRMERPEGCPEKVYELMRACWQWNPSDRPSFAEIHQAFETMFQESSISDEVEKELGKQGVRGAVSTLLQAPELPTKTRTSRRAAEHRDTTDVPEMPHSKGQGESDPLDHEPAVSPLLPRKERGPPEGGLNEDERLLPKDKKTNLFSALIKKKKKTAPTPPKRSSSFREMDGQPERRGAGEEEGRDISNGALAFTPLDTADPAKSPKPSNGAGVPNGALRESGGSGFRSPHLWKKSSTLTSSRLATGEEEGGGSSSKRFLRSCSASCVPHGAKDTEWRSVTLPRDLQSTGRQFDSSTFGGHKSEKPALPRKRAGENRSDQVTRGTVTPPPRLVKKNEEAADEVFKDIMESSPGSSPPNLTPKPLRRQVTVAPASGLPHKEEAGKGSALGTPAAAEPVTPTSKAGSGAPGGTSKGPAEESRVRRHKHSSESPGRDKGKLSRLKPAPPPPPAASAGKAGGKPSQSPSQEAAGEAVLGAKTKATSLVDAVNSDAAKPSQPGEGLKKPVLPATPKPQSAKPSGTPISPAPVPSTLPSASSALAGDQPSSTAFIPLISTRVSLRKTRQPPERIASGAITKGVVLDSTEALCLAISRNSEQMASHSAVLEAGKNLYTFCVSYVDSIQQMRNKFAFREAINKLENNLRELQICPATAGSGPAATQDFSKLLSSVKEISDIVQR

IC50 [nM]	ABL AVG % Activity at Specific Concentration [1] [%]	ABL AVG % Activity at Specific Concentration [2] [%]	ABL AVG % Activity at Specific Concentration [3] [%]	ABL AVG % Activity at Specific Concentration [4] [%]	ABL AVG % Activity at Specific Concentration [5] [%]	ABL AVG % Activity at Specific Concentration [6] [%]	SMILES
0.43	14	85	99	1	62	97	COCCOCCOCCOCC(=O)NC(CC(C)C)C(=O)OCCN1CCN(c2cc(Nc3ncc(C(=O)Nc4c(C)cccc4Cl)s3)nc(C)n2)CC1 (centres unmarked) [mPEG3-Leu-Dasatinib]
0.37	10	85	98	0	54	95	COCCOCCOCCOCC(=O)N[C@H](C(=O)OCCN1CCN(c2cc(Nc3ncc(C(=O)Nc4c(C)cccc4Cl)s3)nc(C)n2)CC1)C(C)C [mPEG3-Val-Dasatinib]
0.31	4	80	97	−1	47	92	COCCOCCOCCOCCOCCOCCOCCOCCOCCNC(=O)OCCN1CCN(c2cc(Nc3ncc(C(=O)Nc4c(C)cccc4Cl)s3)nc(C)n2)CC1 [mPEG9-NHCOO-Dasatinib]
0.3	4	80	97	−1	45	94	COCCOCCOCCOCCOCCNC(=O)OCCN1CCN(c2cc(Nc3ncc(C(=O)Nc4c(C)cccc4Cl)s3)nc(C)n2)CC1 [mPEG5-NHCOO-Dasatinib]
0.29	2	80	98	−1	44	92	COCCOCCOCCOCC(=O)OCCN1CCN(c2cc(Nc3ncc(C(=O)Nc4c(C)cccc4Cl)s3)nc(C)n2)CC1 [mPEG3-COO-Dasatinib]
